Earlier results in US20250143905A1, “TOPICAL TREATMENT FOR ANORECTAL DISORDERS WITH AND WITHOUT SEAT CUSHION” (priority 2019, published 2025).

System: PPAR-γ
Details: septic rats; pretreatment with curcumin for 3 days at 0.24 μmol/kg body weight; liver

COc1cc(/C=C/C(=O)CC(=O)/C=C/c2ccc(O)c(OC)c2)ccc1O [curcumin]
increase in PPAR-γ mRNA levels: 45% | increase in PPAR-γ protein levels: 65%
